{"source": "patent EP0084678B1", "about": "“New compound having analgesic, antiinflammatory and mucoregulating activities, process for its production and relative pharmaceutical compositions” (AUSONIA FARMACEUTICI S.r.l., priority 1982, dated 1983)", "key": {"[1]": {"tested_on": "subplantar edema induced by carrageenin", "experiment": "Antiinflammatory activity, subplantar edema by carrageenin", "assay_type": "in vivo", "conditions": "rat; for MEAN LIMB VOLUME AT DIFFERENT HOURS AFTER TREATMENT 0: hour 0; for MEAN LIMB VOLUME AT DIFFERENT HOURS AFTER TREATMENT 1: hour 1; for MEAN LIMB VOLUME AT DIFFERENT HOURS AFTER TREATMENT 2: hour 2; for MEAN LIMB VOLUME AT DIFFERENT HOURS AFTER TREATMENT 3: hour 3; for MEAN LIMB VOLUME AT DIFFERENT HOURS AFTER TREATMENT 4: hour 4; for MEAN LIMB VOLUME AT DIFFERENT HOURS AFTER TREATMENT 5: hour 5; for AREA Absolute value: limb volume over 5 hours", "protocol": "Tests have been performed on the rat, employing the test of the subplantar edema induced by carrageenin. […] and, for comparison, ASA, have been administered by oral route 30 minutes before carrageenin, at the doses hereinafter stated. After edema induction, the animals of each group have been controlled, every 60 minutes for 5 consecutives hours, in order to point out the evolution of the inflammatory process."}, "[2]": {"tested_on": "writhings by phenylquinone", "experiment": "Analgesic activity, writhings by phenylquinone", "assay_type": "in vivo", "conditions": "mouse; for % Inhibition in comparison with controls: writhings", "protocol": "The test of writhings by phenylquinone in the mouse has been used. AFP-696 has been administered by oral route at the dose of 500 mg/kg in comparison with acetylsalicylic acid at the dose of […].\nThe two drugs have been administered per os 30 minutes after intraperitoneal injection of phenil- quinone."}, "[3]": {"experiment": "Solubility of the isolated product", "assay_type": "physicochemical", "protocol": "To 90 g of ASA in 500 ml of benzene, 120 g of thionyl chloride are added. The mixture is refluxed for three hours. At the end, the benzene is evaporated under reduced pressure to dryness. The acetylsalicyclic acid chloride so obtained is dissolved in 500 ml of anhydrous tetrahydrofuran and added with 80 g of pyridine; to this solution 85 g of sobrerol (di-trans form) are added. The reaction is completed after two hours refluxing. At the end the solvent is evaporated under reduced pressure, the residue is washed with water and extracted with ethyl ether. […] Its structure is confirmed by analytical and spectroscopical data: • Elemental analysis: for C19H24O5 (M.W. = 332.39) • calcd. % C = 68.66; H = 7.28 • found % C = 68.79; H = 7.33. • I.R. Spectrum (liquid film; values of absorption bands are expressed in cm^-1): • stretch 0-H 3550-3400 broad bands • stretch C-H aromatics alifatics 3080-2910 • stretch C = O alifat. ester 1780 • stretch C = O aromat. ester 1730 • stretch C = C 1615 • stretch C(= 0)-O acetate 1145 • stretch C(= 0)-0 arilyc 1255 • H' NMR Spectrum (recorded in CDCI3, internal references TMS; values of chemical shifts are expressed in 6): • 1.2 (d, 6H, 2(CH3)); • 1.8 (s, 3H, =C-CH3); • 1.4-2.2 (m, 6H, CH2-CH-CH2, OH mobile); • 2.3 (s, 3H, CO-CH3); • 5.3 (m, 1H, CH―O―CO); • 5.8 (m, 1H, CH=C-CH3); • 7-7.7 (m, 3H aromatics); • 8 (double d, 1H aromatic). […]"}, "male Wistar rats": {"tested_on": "male Wistar rats", "experiment": "Bronchosecretogogue activity (Mawatari technique)", "assay_type": "in vivo, rat", "conditions": "500 mg/kg/os, FlNa = Sodium fluoresceine", "text": "The bronchosecretogogue activity has been determined in male Wistar rats by per os administration according to the method of Mawatari [Mawatari H., Kagoshima Daigaku Igaku-Zasshi, 27, 561 (1976)], comparing AFP-696 with carboxymethylcysteine and sobrerol at the doses hereinafter stated."}, "gastric mucose": {"tested_on": "gastric mucose", "experiment": "Gastrolesive action", "assay_type": "in vivo", "conditions": "rats fasting since 18 hours, 5 hours 30 minutes after treatment", "protocol": "Rats fasting since 18 hours have been treated by oral route with AFP-696 and, for comparison, with acetylsalicylic acid, at the doses hereinafter stated. 5 Hours and 30 minutes after treatments, the animals have been sacrificed and the stomach has been withdrawn for gastric mucose examination."}, "[4]": {"experiment": "Acute toxicity (Litchfield and Wilcoxon method), rat", "conditions": "Wistar, in vivo", "text": "(§1) The acute toxicity has been determined in Swiss mouse and in Wistar rat for different administration routes, according to the method of Litchfield J.T. and Wilcoxon [J. Pharm. Exp. Therap. 96, 99―113, (1949)].\n(§2) The results obtained are reported in the following Table I; from the same it can be pointed out how AFP 696 is endowed with a very low acute toxicity."}, "[5]": {"experiment": "Pharmacokinetics, plasma and lung levels by gas chromatography", "assay_type": "in vivo", "conditions": "rats", "protocol": "Two groups of rats have been treated per os, by gastric tube, with AFP-696 at the dose of 100 mg/kg and acetylsalicylic acid at the dose of 54 mg/kg. At the moment of treatment rats were fasting since 18 hours. Rats have been then sacrificed in groups of 4 at different times: 30 min., 1 h, 2 h, 4 h, 6 h.\nThe concentration both of unchanged products and of their metabolites have been measured by gaschromatography in plasma and in the lung."}, "male rabbit": {"tested_on": "male rabbit", "experiment": "Mucosecretolytic activity (technique of Giraldez et al.)", "assay_type": "in vivo", "conditions": "500 mg/kg/os", "text": "The mucosecretolytic activity has been studied in the male rabbit according to the technique of Giraldez, Grass and Bruseghini (Abstr. Comp. Int. Pharm. N. 1086-Paris 1978), by administration by the oral route, comparing AFP-696 with carboxymethylcysteine and sobrerol at the dose hereinafter stated."}, "[6]": {"tested_on": "cough induced by citric acid aerosol", "experiment": "Anti-cough activity, cough induced by citric acid aerosol", "assay_type": "in vivo, rabbits", "conditions": "cough strokes", "protocol": "The anti-cough activity of AFP-696 has been assessed after administration by endoperitoneal route (30% in tween) on rabbits of both sexes, weighing […], according to the method of the cough induced by citric acid aerosol administration, and evaluating the mean number of cough strokes in comparison with the same basal values (Boura and coil. - Prog. Brit. Pharmac. Soc. Apr. 1970). As reference standard a group of codeine treated animals at the dose of 12.5 mg/kg has been used."}, "[7]": {"experiment": "Acute toxicity (Litchfield and Wilcoxon method), mouse", "conditions": "Swiss, in vivo", "text": "as §1, §2"}}, "data": [{"smiles": "CC(=O)Oc1ccccc1C(=O)OC1CC(C(C)(C)O)CC=C1C", "note": "(stereo not drawn) [AFP-696, 2-acetoxybenzoate of 2-methyl-5-(1-hydroxy-1-methylethyl)-cyclohexen-2-yl]", "values": [{"measurement": "AREA % Inhibition in comparison with controls", "setting": "[1]; 500 mg/kg os", "result": 33.0, "unit": "%"}, {"measurement": "MEAN LIMB VOLUME AT DIFFERENT HOURS AFTER TREATMENT 0", "setting": "[1]; 500 mg/kg os", "result": 24.1}, {"measurement": "MEAN LIMB VOLUME AT DIFFERENT HOURS AFTER TREATMENT 1", "setting": "[1]; 500 mg/kg os", "result": 28.1}, {"measurement": "MEAN LIMB VOLUME AT DIFFERENT HOURS AFTER TREATMENT 2", "setting": "[1]; 500 mg/kg os", "result": 31.4}, {"measurement": "MEAN LIMB VOLUME AT DIFFERENT HOURS AFTER TREATMENT 3", "setting": "[1]; 500 mg/kg os", "result": 37.4}, {"measurement": "MEAN LIMB VOLUME AT DIFFERENT HOURS AFTER TREATMENT 4", "setting": "[1]; 500 mg/kg os", "result": 38.1}, {"measurement": "MEAN LIMB VOLUME AT DIFFERENT HOURS AFTER TREATMENT 5", "setting": "[1]; 500 mg/kg os", "result": 38.1}, {"measurement": "AREA Absolute value", "setting": "[1]; 500 mg/kg os", "result": 183.0}, {"measurement": "Mean No of writhings", "setting": "[2]; 500 mg/kg os", "result": "1.3 ± 0.9"}, {"measurement": "No animals with writhings", "setting": "[2]; 500 mg/kg os", "result": "3/10"}, {"measurement": "% Inhibition in comparison with controls", "setting": "[2]; 500 mg/kg os", "result": 89.8, "unit": "%"}, {"measurement": "solubility in organic solvents", "setting": "[3]; organic solvents", "result": "easily soluble"}, {"measurement": "solubility in water", "setting": "[3]; water", "result": "slightly soluble"}, {"measurement": "% Increase of FlNa (*) in comparison with controls", "setting": "male Wistar rats", "result": 63.6, "unit": "%"}, {"measurement": "Mean ulcers' size", "setting": "gastric mucose; 150 mg/kg/os", "result": "0.7 ± 0.4", "unit": "mm"}, {"measurement": "LD50", "setting": "[4]; ip", "result": 1950, "unit": "mg/kg"}, {"measurement": "LD50", "setting": "[4]; oral, os", "result": "> 4000", "unit": "mg/kg"}, {"measurement": "pulmonary levels of salicylic acid", "setting": "[5]; 100 mg/kg per os vs acetylsalicylic acid 54 mg/kg, lung", "result": "higher"}, {"measurement": "plasma levels of acetylsalicylic acid in comparison with the administration of acetylsalicylic acid at equimolar doses", "setting": "[5]; 100 mg/kg per os vs acetylsalicylic acid 54 mg/kg, more marked in the first two hours", "result": "higher"}, {"measurement": "unchanged AFP-696 in plasma", "setting": "[5]; 100 mg/kg per os, at 30 minutes and in some instance also at 1 hour", "result": "found in plasma"}, {"measurement": "% Increase of secretion in comparison with controls", "setting": "male rabbit", "result": 39.5, "unit": "%"}, {"measurement": "% Inhibition in comparison with controls", "setting": "[6]; 150 mg/kg, endoperitoneal route (30% in tween)", "result": 82.4, "unit": "%"}, {"measurement": "LD50", "setting": "[7]; ip", "result": 1600, "unit": "mg/kg"}, {"measurement": "LD50", "setting": "[7]; oral, os", "result": 3500, "unit": "mg/kg"}]}, {"smiles": "CC(=O)Oc1ccccc1C(=O)O", "note": "[Acetylsalicylic acid, acetylsalicylic acid, reference compound]", "values": [{"measurement": "AREA % Inhibition in comparison with controls", "setting": "[1]; 250 mg/kg os", "result": 33.6, "unit": "%"}, {"measurement": "MEAN LIMB VOLUME AT DIFFERENT HOURS AFTER TREATMENT 0", "setting": "[1]; 250 mg/kg os", "result": 24.3}, {"measurement": "MEAN LIMB VOLUME AT DIFFERENT HOURS AFTER TREATMENT 1", "setting": "[1]; 250 mg/kg os", "result": 27.4}, {"measurement": "MEAN LIMB VOLUME AT DIFFERENT HOURS AFTER TREATMENT 2", "setting": "[1]; 250 mg/kg os", "result": 32.2}, {"measurement": "MEAN LIMB VOLUME AT DIFFERENT HOURS AFTER TREATMENT 3", "setting": "[1]; 250 mg/kg os", "result": 37.8}, {"measurement": "MEAN LIMB VOLUME AT DIFFERENT HOURS AFTER TREATMENT 4", "setting": "[1]; 250 mg/kg os", "result": 38.6}, {"measurement": "MEAN LIMB VOLUME AT DIFFERENT HOURS AFTER TREATMENT 5", "setting": "[1]; 250 mg/kg os", "result": 38.6}, {"measurement": "AREA Absolute value", "setting": "[1]; 250 mg/kg os", "result": 181.28}, {"measurement": "Mean No of writhings", "setting": "[2]; 250 mg/kg os", "result": "0.6 ± 0.5"}, {"measurement": "No animals with writhings", "setting": "[2]; 250 mg/kg os", "result": "1/10"}, {"measurement": "% Inhibition in comparison with controls", "setting": "[2]; 250 mg/kg os", "result": 95.3, "unit": "%"}, {"measurement": "Mean ulcers' size", "setting": "gastric mucose; 100 mg/kg/os", "result": "3.9 ± 1.2", "unit": "mm"}]}, {"smiles": "COc1ccc2c3c1O[C@H]1[C@@H](O)C=C[C@H]4[C@@H](C2)N(C)CC[C@@]341", "note": "[Codeine, codeine, reference compound]", "values": [{"measurement": "% Inhibition in comparison with controls", "setting": "[6]; 12.5 mg/kg", "result": 76.7, "unit": "%"}]}, {"smiles": "CC1=CCC(C(C)(C)O)CC1O", "note": "(stereo not drawn) [Sobrerol, 2-methyl-5-(1-hydroxy-1-methyl-ethyl)-2-cyclohexen-1-ol, reference compound]", "values": [{"measurement": "% Increase of FlNa (*) in comparison with controls", "setting": "male Wistar rats", "result": 33.4, "unit": "%"}, {"measurement": "% Increase of secretion in comparison with controls", "setting": "male rabbit", "result": 36.8, "unit": "%"}]}]}
